For orientation: IC50 means the midpoint of a concentration-inhibition curve. A lower IC50 goes with inhibition by little substance.

The results in this text go back to ChEMBL document CHEMBL1150204, “Cystodytins D-I, new cytotoxic tetracyclic aromatic alkaloids from the Okinawan marine tunicate Cystodytes dellechiajei” (J Nat Prod, 1991).

SMILES strings stand for the structures. In brackets after ≈: the same amount, converted by molar mass.

For one test, the system named is KB. Briefly: Cytotoxicity against human KB cells. In kind it is functional, cell-based.
A further test relates to L1210. Kind of test: Cytotoxicity against mouse L1210 cells. The format is functional, cell-based.

`CC(C)=CC(=O)NCC(O)C1=CC(=O)c2nccc3c2c1nc1ccccc13` (configuration not stated) [CYSTODYTIN D]: the IC50 in the test with KB came to 1.4 mg/L (≈ 3.75 µM); in the test with L1210, 1.1 mg/L (≈ 2.95 µM).
For `C/C=C(\C)C(=O)NCC(O)C1=CC(=O)c2nccc3c2c1nc1ccccc13` (configuration not stated) [CYSTODYTIN E] the same measures were 1.4 mg/L (≈ 3.75 µM) and 1.1 mg/L (≈ 2.95 µM).
Consider `COC(CNC(=O)C=C(C)C)C1=CC(=O)c2nccc3c2c1nc1ccccc13` (configuration not stated) [CYSTODYTIN F], for which the IC50 in the test with KB came out at 0.078 mg/L (≈ 0.201 µM); in the test on L1210, 0.068 mg/L (≈ 0.176 µM).
On the same counts, the results for `C/C=C(\C)C(=O)NCC(OC)C1=CC(=O)c2nccc3c2c1nc1ccccc13` (configuration not stated) [CYSTODYTIN G] are 0.078 mg/L (≈ 0.201 µM) and 0.068 mg/L (≈ 0.176 µM).
`CCCCCCCC/C=C/CCCCCCCC(=O)OC(CNC(=O)C=C(C)C)C1=CC(=O)c2nccc3c2c1nc1ccccc13` (configuration not stated) [CYSTODYTIN H]: the results for the IC50 in the test on KB and in the test on L1210 were 0.092 mg/L (≈ 0.144 µM) and 0.08 mg/L (≈ 0.125 µM), respectively.
Regarding `C/C=C(\C)C(=O)NCC(OC(=O)CCCCCCC/C=C/CCCCCCCC)C1=CC(=O)c2nccc3c2c1nc1ccccc13` (configuration not stated) [CYSTODYTIN I], the values for the IC50 in the test with KB and in the test with L1210 were 0.092 mg/L (≈ 0.144 µM) and 0.08 mg/L (≈ 0.125 µM), respectively.
